Test results as given in patent US12209087B2, “AKT1 modulators” (Alterome Therapeutics, Inc., priority 2022, dated 2025).

Target: T1, full length AKT E17K (Homo sapiens, UniProt P31749, E17K)
T1 construct: host or cells: HEK-293 (ATCC CRL-1573)
Assay: NanoBRET Target Engagement (TE) Assay
Type: cell-based
Settings: competitive displacement of tracer in cells, read-out: AKT1 E17K IC50
Outline: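 Compound and tracer incubated 2 h before luminescence at donor 450 nm and acceptor 600 nm, with extracellular signal inhibited. EC50 by sigmoidal variable-slope regression.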

T1 sequence (P31749 whole entry E17K): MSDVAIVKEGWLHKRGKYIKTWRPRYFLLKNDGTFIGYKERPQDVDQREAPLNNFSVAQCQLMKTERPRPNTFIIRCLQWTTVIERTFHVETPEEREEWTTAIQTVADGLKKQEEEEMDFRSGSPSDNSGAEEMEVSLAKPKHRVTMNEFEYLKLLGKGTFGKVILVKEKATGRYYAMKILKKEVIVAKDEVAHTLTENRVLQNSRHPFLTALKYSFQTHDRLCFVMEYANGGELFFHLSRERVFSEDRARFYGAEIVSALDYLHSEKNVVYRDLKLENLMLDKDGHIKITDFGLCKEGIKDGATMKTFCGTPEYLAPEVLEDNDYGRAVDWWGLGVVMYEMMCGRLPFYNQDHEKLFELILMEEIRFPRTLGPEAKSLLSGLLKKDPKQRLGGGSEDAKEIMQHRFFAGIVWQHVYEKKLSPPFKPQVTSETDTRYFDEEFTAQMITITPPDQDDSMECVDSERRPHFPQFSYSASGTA

`N#Cc1nccc(NC2CCN(Cc3ccc(-n4c(-c5cccnc5N)nc5ccc(-c6cocn6)nc54)cc3)CC2)n1` [Example 594, 4-((1-(4-(2-(2-Aminopyridin-3-yl)-5-(oxazol-4-yl)-3H-imidazo[4,5-b]pyridin-3-yl)benzyl)piperidin-4-yl)amino)pyrimidine-2-carbonitrile] gave an IC50 of less than 0.015 µM.

For `N#Cc1nccc(NC2CCN(Cc3ccc(-n4c(-c5cccnc5N)nc5ccc(-c6cnccc6F)nc54)cc3)CC2)n1` [Example 595, 4-((1-(4-(2-(2-Aminopyridin-3-yl)-5-(4-fluoropyridin-3-yl)-3H-imidazo[4,5-b]pyridin-3-yl)benzyl)piperidin-4-yl)amino)pyrimidine-2-carbonitrile], the IC50 was less than 0.015 µM.

`Cc1ccnc(-c2ccc3nc(-c4cccnc4N)n(-c4ccc(CN5CCC(Nc6ccnc(C#N)n6)CC5)cc4)c3n2)c1` [Example 596, 4-((1-(4-(2-(2-Aminopyridin-3-yl)-5-(4-methylpyridin-2-yl)-3H-imidazo[4,5-b]pyridin-3-yl)benzyl)piperidin-4-yl)amino)pyrimidine-2-carbonitrile] was tested, and the IC50 was less than 0.015 µM.

`[2H]c1nc(OC([2H])([2H])[2H])ccc1-c1ccc2nc(-c3cccnc3N)n(-c3ccc(CN4CCC(Nc5ccnc(C#N)n5)CC4)cc3)c2n1` [Example 597, 4-((1-(4-(2-(2-aminopyridin-3-yl)-5-(6-(methoxy-d3)pyridin-3-yl-2-d)-3H-imidazo[4,5-b]pyridin-3-yl)benzyl)piperidin-4-yl)amino)pyrimidine-2-carbonitrile] showed an IC50 of less than 0.015 µM.

Compound `[2H]C([2H])([2H])Oc1ccc(-c2ccc3nc(-c4cccnc4N)n(-c4ccc(CN5CCC(Nc6ccnc(C#N)n6)CC5)cc4)c3n2)cn1` [Example 598, 4-((1-(4-(2-(2-aminopyridin-3-yl)-5-(6-(methoxy-d3)pyridin-3-yl)-3H-imidazo[4,5-b]pyridin-3-yl)benzyl)piperidin-4-yl)amino)pyrimidine-2-carbonitrile] has an IC50 of less than 0.015 µM.

`N#Cc1nccc(NC2CCN(Cc3ccc(-n4c(-c5cccnc5N)nc5cc(C#N)c(O)nc54)cc3)CC2)n1` [Example 599, 2-(2-Aminopyridin-3-yl)-3-(4-((4-((2-cyanopyrimidin-4-yl)amino)piperidin-1-yl)methyl)phenyl)-5-hydroxy-3H-imidazo[4,5-b]pyridine-6-carbonitrile] was tested, and the IC50 was 0.6 to 10 µM.

Work on `N#Cc1nccc(NC2CCN(Cc3ccc(-n4c(-c5c(F)ccnc5N)nc5ccc(-c6ccc(F)cn6)nc54)cc3)CC2)n1` [Example 600, 4-((1-(4-(2-(2-Amino-4-fluoropyridin-3-yl)-5-(5-fluoropyridin-2-yl)-3H-imidazo[4,5-b]pyridin-3-yl)benzyl)piperidin-4-yl)amino)pyrimidine-2-carbonitrile] yielded an IC50 of 0.015 to 0.06 µM.

Compound `N#Cc1nccc(NC2CCN(Cc3ccc(-n4c(-c5cncnc5)nc5ccc(-c6ccc(F)cn6)nc54)cc3)CC2)n1` [Example 601, 4-((1-(4-(5-(5-Fluoropyridin-2-yl)-2-(pyrimidin-5-yl)-3H-imidazo[4,5-b]pyridin-3-yl)benzyl)piperidin-4-yl)amino)pyrimidine-2-carbonitrile] has an IC50 of 0.6 to 10 µM.

In the case of `N#Cc1nccc(NC2CCN(Cc3ccc(-n4c(-c5cccnc5N)nc5ccc(-c6ccc(F)cn6)cc54)cc3)CC2)n1` [Example 602, 4-((1-(4-(2-(2-Aminopyridin-3-yl)-6-(5-fluoropyridin-2-yl)-1H-benzo[d]imidazol-1-yl)benzyl)piperidin-4-yl)amino)pyrimidine-2-carbonitrile], the IC50 is reported as less than 0.015 µM.

In the case of `N#Cc1nccc(NC2CCN(Cc3ccc(-n4c(-c5cccnc5N)nc5ccc(-c6ncc(F)cn6)nc54)cc3)CC2)n1` [Example 603, 4-((1-(4-(2-(2-Aminopyridin-3-yl)-5-(5-fluoropyrimidin-2-yl)-3H-imidazo[4,5-b]pyridin-3-yl)benzyl)piperidin-4-yl)amino)pyrimidine-2-carbonitrile], the IC50 is reported as less than 0.015 µM.

With `Cc1cnc(-c2ccc3nc(-c4cccnc4N)n(-c4ccc(CN5CCC(Nc6ccnc(C#N)n6)CC5)cc4)c3n2)nc1` [Example 604, 4-((1-(4-(2-(2-Aminopyridin-3-yl)-5-(5-methylpyrimidin-2-yl)-3H-imidazo[4,5-b]pyridin-3-yl)benzyl)piperidin-4-yl)amino)pyrimidine-2-carbonitrile] the IC50 was less than 0.015 µM.

`N#Cc1nccc(NC2CCN(Cc3ccc(-n4c(-c5cccnc5N)nc5ccc(-c6cnc(F)cn6)nc54)cc3)CC2)n1` [Example 605, 4-((1-(4-(2-(2-Aminopyridin-3-yl)-5-(5-fluoropyrazin-2-yl)-3H-imidazo[4,5-b]pyridin-3-yl)benzyl)piperidin-4-yl)amino)pyrimidine-2-carbonitrile] showed an IC50 of less than 0.015 µM.

Work on `N#Cc1nccc(NC2CCN(Cc3ccc(-n4c(-c5cccnc5N)nc5ccc(-c6ccc(OCF)nc6)nc54)cc3)CC2)n1` [Example 606, 4-((1-(4-(2-(2-Aminopyridin-3-yl)-5-(6-(fluoromethoxy)pyridin-3-yl)-3H-imidazo[4,5-b]pyridin-3-yl)benzyl)piperidin-4-yl)amino)pyrimidine-2-carbonitrile] yielded an IC50 of less than 0.015 µM.

With `N#Cc1nccc(NC2CCN(Cc3ccc(-n4c(-c5cccnc5N)nc5ccc(-c6ccc(=O)n(CF)c6)nc54)cc3)CC2)n1` [Example 607, 4-((1-(4-(2-(2-Aminopyridin-3-yl)-5-(1-(fluoromethyl)-6-oxo-1,6-dihydropyridin-3-yl)-3H-imidazo[4,5-b]pyridin-3-yl)benzyl)piperidin-4-yl)amino)pyrimidine-2-carbonitrile] the IC50 was 0.015 to 0.06 µM.

`[2H]C([2H])([2H])n1ncc(-c2ccc3nc(-c4cccnc4N)n(-c4ccc(CN5CCC(Nc6ccnc(C#N)n6)CC5)cc4)c3n2)n1` [Example 608, 4-((1-(4-(2-(2-Aminopyridin-3-yl)-5-(2-(methyl-d3)-2H-1,2,3-triazol-4-yl)-3H-imidazo[4,5-b]pyridin-3-yl)benzyl)piperidin-4-yl)amino)pyrimidine-2-carbonitrile] was tested, and the IC50 was less than 0.015 µM.

Compound `CCn1ncc(-c2ccc3nc(-c4cccnc4N)n(-c4ccc(CN5CCC(Nc6ccnc(C#N)n6)CC5)cc4)c3n2)n1` [Example 609, 4-((1-(4-(2-(2-Aminopyridin-3-yl)-5-(2-ethyl-2H-1,2,3-triazol-4-yl)-3H-imidazo[4,5-b]pyridin-3-yl)benzyl)piperidin-4-yl)amino)pyrimidine-2-carbonitrile] has an IC50 of less than 0.015 µM.

`CC(C)n1ncc(-c2ccc3nc(-c4cccnc4N)n(-c4ccc(CN5CCC(Nc6ccnc(C#N)n6)CC5)cc4)c3n2)n1` [Example 610, 4-((1-(4-(2-(2-Aminopyridin-3-yl)-5-(2-isopropyl-2H-1,2,3-triazol-4-yl)-3H-imidazo[4,5-b]pyridin-3-yl)benzyl)piperidin-4-yl)amino)pyrimidine-2-carbonitrile] showed an IC50 of less than 0.015 µM.

For `CC(C)n1cc(-c2ccc3nc(-c4cccnc4N)n(-c4ccc(CN5CCC(Nc6ccnc(C#N)n6)CC5)cc4)c3n2)nn1` [Example 611, 4-((1-(4-(2-(2-Aminopyridin-3-yl)-5-(1-isopropyl-1H-1,2,3-triazol-4-yl)-3H-imidazo[4,5-b]pyridin-3-yl)benzyl)piperidin-4-yl)amino)pyrimidine-2-carbonitrile], the IC50 was less than 0.015 µM.

In the case of `[2H]C([2H])([2H])c1nn(C)nc1-c1ccc2nc(-c3cccnc3N)n(-c3ccc(CN4CCC(Nc5ccnc(C#N)n5)CC4)cc3)c2n1` [Example 612, 4-((1-(4-(2-(2-Aminopyridin-3-yl)-5-(2-methyl-5-(methyl-d3)-2H-1,2,3-triazol-4-yl)-3H-imidazo[4,5-b]pyridin-3-yl)benzyl)piperidin-4-yl)amino)pyrimidine-2-carbonitrile], the IC50 is reported as less than 0.015 µM.
